Data from patent US7947435B2, “Neuronal regeneration material screening method by ex vivo model” (Seoul National University Industry Foundation, priority 2007, dated 2011).

Columns and labels:
spinal cord slices [1] = assay: Histological analysis of spinal cord tissue slices (Luxol fast blue, H&E); format: cell-based, Sprague-Dawley rats; conditions: spinal cord slices treated with 0.5 mg/ml lysolecithin for 17 hours, compared with the control; FIG. 1
Text: (§1) <1-2> Preparation of Spinal Cord Tissue Slices Sprague-Dawley rats at 16 days old were anesthetized and the spinal cord was extracted. The spinal cord was put into ice-cold HBSS (Hanks balanced salt solution). Thoracic and lumbar spinal cords were cult into 400 μm in thickness by using a tissue chopper (McIlwain tissue chopper, The Mickle Laboratory Engineering Co. LTD, England). Several spinal cord slices were loaded on 0.4 μm filter (Millicell-CM filters, Millipore, USA) placed on a 6 well plate. The spinal cord slices were cultured in 1 ml of 25% horse serum (Invitrogen, USA) containing 50% MEM (Invitrogen, USA) supplemented with Earl's salts, 25% HBSS (Invitrogen, USA), 20 mM HEPES (Sigma, USA) and 6 mg/ml of D-glucose (Duchefa, Netherlands). The culture conditions were 5% CO2, 37° C. and the medium was replaced with a fresh medium twice a week. <1-3> Demyelination by Lysolecithin
(§2) The spinal cord slices were cultured in vitro (DIV, days in vitro) for 7 days. After treating 0.5 mg/ml of lysolecithin, the slices were cultured at 37° C. for 17 hours to induce demyelination of axons (Birgbauer et al., J Neurosci Res, 78, 157-166, 2004). After inducing demyelination, the medium containing lysolecithin was replaced with 1 ml of fresh medium. […]

spinal cord slices [2] = assay: Immunofluorescent staining of lysolecithin-demyelinated spinal cord slices; format: cell-based, Sprague-Dawley rats; conditions: spinal cord slices treated with 0.5 mg/ml lysolecithin for 17 hours, compared with the control; FIG. 1
Text: as §1, §2

lysolecithin
demyelination (myelin, Luxol fast blue staining) (spinal cord slices [1]): serious demyelination was observed | MBP expression (spinal cord slices [2]): decreased
